Laboratory results from ChEMBL document CHEMBL5537135, “Novel antimicrobial peptides modified with fluorinated sulfono-γ-AA having high stability and targeting multidrug-resistant bacteria infections” (Eur J Med Chem, 2024).
≈ marks a conversion by molar mass, not a printed value. Calls of active or inactive are those of the source. The rule behind the calls is not given here.

What was measured:
[1] = Toxicity in mouse assessed as sluggish behavior at 20 mg/kg, ip measured for 30 to 60 mins; assay type: organism-based; conditions: in vivo, time 30-60 min
Escherichia coli = experiment: Antimicrobial activity against Escherichia coli ATCC 25922 assessed as inhibition of visible bacterial growth incubated for 18 hrs by broth-dilution method; assay type: functional
Pseudomonas aeruginosa = experiment: Antimicrobial activity against Pseudomonas aeruginosa ATCC 27853 assessed as inhibition of visible bacterial growth incubated for 18 hrs by broth-dilution method; assay type: functional
Acinetobacter baumannii = experiment: Antimicrobial activity against Acinetobacter baumannii ATCC 19606 assessed as inhibition of visible bacterial growth incubated for 18 hrs by broth-dilution method; assay type: functional
Salmonella typhimurium = experiment: Antimicrobial activity against Salmonella typhimurium ATCC 14028 assessed as inhibition of visible bacterial growth incubated for 18 hrs by broth-dilution method; assay type: functional, Salmonella enterica subsp. enterica serovar Typhimurium; conditions: Salmonella enterica
Bacillus subtilis = experiment: Antimicrobial activity against Bacillus subtilis ATCC 23857 assessed as inhibition of visible bacterial growth incubated for 18 hrs by broth-dilution method; assay type: functional
Staphylococcus aureus = experiment: Antibacterial activity against methicillin-resistant Staphylococcus aureus ATCC 33591 infected in full-thickness wound BALB/c mouse model assessed as reduction in inflammatory infiltration at 1 mg/kg, ip administered for 1 to 48 hrs and measured after 3 days; assay type: functional, organism-based; conditions: time 1-120 hrs

Row | Compound | Activity [1] | MIC (Escherichia coli) [µg/mL] | MIC (Pseudomonas aeruginosa) [µg/mL] | MIC (Acinetobacter baumannii) [µg/mL] | MIC (Salmonella typhimurium) [µg/mL] | MIC (Bacillus subtilis) [µg/mL] | Activity (Staphylococcus aureus)
1 | POLYMYXIN B | Toxic |  |  |  |  |  | 
2 | CN[C@H](CC(C)C)C(=O)N[C@H]1C(=O)N[C@@H](CC(N)=O)C(=O)N[C@H]2C(=O)N[C@H]3C(=O)N[C@H](C(=O)N[C@H](C(=O)O)c4cc(O)cc(O)c4-c4cc3ccc4O)[C@H](O)c3ccc(c(Cl)c3)Oc3cc2cc(c3O[C@@H]2O[C@H](CO)[C@@H](O)[C@H](O)[C@H]2O[C@H]2C[C@](C)(N)[C@H](O)[C@H](C)O2)Oc2ccc(cc2Cl)[C@H]1O [VANCOMYCIN] |  | 256 (≈ 177 µM) | 256 (≈ 177 µM) | 32 (≈ 22.1 µM) | 128 (≈ 88.3 µM) | 1 (≈ 0.69 µM) | Active
